This passage reports Ki results from patent US8410112B2, “Compounds useful as inhibitors of ATR kinase” (Vertex Pharmaceuticals Incorporated, priority 2008, dated 2013).

The target of this experiment is T1, full-length ATR (Homo sapiens, UniProt Q13535).
T1 construct: in the presence of 5 nM full-length ATR
T1 sequence (Q13535 whole entry): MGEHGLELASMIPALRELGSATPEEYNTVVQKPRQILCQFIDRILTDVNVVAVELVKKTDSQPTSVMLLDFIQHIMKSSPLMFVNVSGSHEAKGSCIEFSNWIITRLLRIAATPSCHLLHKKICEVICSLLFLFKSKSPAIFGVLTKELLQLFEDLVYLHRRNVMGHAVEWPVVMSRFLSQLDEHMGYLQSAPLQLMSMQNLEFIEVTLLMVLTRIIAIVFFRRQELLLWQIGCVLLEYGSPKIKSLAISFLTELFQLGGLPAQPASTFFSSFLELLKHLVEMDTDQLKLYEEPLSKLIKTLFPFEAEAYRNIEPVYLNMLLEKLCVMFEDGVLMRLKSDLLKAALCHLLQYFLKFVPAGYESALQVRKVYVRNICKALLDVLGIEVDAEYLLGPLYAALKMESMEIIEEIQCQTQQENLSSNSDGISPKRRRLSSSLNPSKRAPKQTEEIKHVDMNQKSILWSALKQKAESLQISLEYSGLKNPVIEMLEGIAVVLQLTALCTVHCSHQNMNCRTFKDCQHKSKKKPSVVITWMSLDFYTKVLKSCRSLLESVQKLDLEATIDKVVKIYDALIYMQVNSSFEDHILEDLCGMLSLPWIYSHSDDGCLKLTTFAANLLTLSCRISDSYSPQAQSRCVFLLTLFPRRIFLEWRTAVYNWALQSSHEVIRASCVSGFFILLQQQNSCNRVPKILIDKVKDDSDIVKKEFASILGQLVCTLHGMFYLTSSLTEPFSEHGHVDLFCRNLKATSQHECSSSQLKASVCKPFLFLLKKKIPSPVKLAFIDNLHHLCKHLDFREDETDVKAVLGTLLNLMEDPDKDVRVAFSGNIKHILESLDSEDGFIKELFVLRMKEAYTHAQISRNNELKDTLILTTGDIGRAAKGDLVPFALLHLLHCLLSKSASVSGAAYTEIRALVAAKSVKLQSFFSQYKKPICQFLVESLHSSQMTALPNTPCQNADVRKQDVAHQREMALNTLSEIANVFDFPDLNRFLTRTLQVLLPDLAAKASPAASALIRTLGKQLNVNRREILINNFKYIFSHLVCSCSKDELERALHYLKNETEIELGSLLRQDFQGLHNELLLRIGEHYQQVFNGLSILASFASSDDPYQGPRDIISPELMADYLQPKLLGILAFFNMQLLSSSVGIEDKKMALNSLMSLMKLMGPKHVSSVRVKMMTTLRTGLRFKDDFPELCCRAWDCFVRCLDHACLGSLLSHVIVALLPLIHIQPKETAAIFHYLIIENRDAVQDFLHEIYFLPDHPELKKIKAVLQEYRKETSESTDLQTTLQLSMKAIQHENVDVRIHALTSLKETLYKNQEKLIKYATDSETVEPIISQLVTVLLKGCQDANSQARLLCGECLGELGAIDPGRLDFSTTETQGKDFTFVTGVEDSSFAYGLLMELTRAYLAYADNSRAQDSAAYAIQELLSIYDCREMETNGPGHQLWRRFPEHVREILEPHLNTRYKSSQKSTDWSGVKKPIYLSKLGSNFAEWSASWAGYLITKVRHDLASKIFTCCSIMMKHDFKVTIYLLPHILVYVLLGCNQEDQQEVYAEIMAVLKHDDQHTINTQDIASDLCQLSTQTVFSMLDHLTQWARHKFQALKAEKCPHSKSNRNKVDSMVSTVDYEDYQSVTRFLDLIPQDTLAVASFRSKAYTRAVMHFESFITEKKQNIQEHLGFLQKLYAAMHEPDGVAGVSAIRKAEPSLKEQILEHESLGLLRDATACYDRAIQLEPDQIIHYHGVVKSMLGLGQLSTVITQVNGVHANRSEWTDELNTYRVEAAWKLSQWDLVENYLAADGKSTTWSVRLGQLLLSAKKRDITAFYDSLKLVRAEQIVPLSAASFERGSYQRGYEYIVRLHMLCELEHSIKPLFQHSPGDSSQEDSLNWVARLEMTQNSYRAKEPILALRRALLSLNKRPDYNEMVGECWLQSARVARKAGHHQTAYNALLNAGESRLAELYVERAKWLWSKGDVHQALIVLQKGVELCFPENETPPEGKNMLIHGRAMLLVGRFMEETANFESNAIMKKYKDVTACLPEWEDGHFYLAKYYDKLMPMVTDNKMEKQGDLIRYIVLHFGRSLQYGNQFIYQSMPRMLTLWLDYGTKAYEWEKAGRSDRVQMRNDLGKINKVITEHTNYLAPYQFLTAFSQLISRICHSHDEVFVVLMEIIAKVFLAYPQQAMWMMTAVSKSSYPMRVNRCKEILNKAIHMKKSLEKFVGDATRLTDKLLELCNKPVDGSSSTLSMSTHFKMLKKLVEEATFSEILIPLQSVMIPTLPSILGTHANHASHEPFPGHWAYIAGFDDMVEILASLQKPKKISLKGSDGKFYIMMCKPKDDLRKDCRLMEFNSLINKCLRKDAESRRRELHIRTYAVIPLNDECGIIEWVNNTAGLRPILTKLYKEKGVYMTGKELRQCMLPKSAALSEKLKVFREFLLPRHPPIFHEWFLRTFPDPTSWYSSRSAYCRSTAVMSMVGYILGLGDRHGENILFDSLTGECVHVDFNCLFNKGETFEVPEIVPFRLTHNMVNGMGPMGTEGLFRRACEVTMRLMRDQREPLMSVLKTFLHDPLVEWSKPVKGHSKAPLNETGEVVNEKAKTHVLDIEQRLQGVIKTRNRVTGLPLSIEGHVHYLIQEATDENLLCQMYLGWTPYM
Briefly: ATR Inhibition Assay (radioactive-phosphate incorporation). The format is biochemical. Particulars: Ki(app); 5 nM full-length ATR, 10 μM ATP, 800 μM target peptide, 25° C. The method in brief:
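After a 10-min pre-incubation of compound with 5 nM enzyme at 25 °C, ATP was added to start the reaction (final 10 μM [γ-33P]ATP, 800 μM peptide; Tris/HCl pH 7.5, MgCl2, DTT), which ran 24 h. Incorporated 33P was captured on phosphocellulose filters, and Ki(app) was fitted by non-linear regression.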
As to `Nc1ncc(N2CC[C@H](NC(=O)c3cccnc3)C2)nc1-c1nc2ccccc2[nH]1` [Compound I-188, (S)-N-(1-(5-amino-6-(1H-benzo[d]imidazol-2-yl)pyrazin-2-yl)pyrrolidin-3-yl)pyridine-3-carboxamide], the Ki lay within 100 to 1000 nM.
To `Nc1ncc(N2CCN(S(=O)(=O)c3ccccc3)CC2)nc1-c1nnc(-c2ccccc2)o1` [Compound I-196, 3-(5-phenyl-1,3,4-oxadiazol-2-yl)-5-(4-(phenylsulfonyl)piperazin-1-yl)pyrazin-2-amine] belongs 100 to 1000 nM; to `Nc1ncc(C2=CCN(C(=O)N3CCOCC3)CC2)nc1-c1nc2ccccc2[nH]1` [Compound I-227, (4-(5-amino-6-(1H-benzo[d]imidazol-2-yl)pyrazin-2-yl)-5,6-dihydropyridin-1(2H)-yl)(morpholino)methanone], 100 to 1000 nM.
In the case of `Nc1ncc(N2CCN(S(=O)(=O)c3ccoc3)CC2)nc1-c1nc2ccccc2[nH]1` [Compound I-269, 3-(1H-benzo[d]imidazol-2-yl)-5-(4-(furan-3-ylsulfonyl)piperazin-1-yl)pyrazin-2-amine], the Ki was in the range of 100 to 1000 nM.
To `CCC(=O)N1CCN(c2cnc(N)c(-c3nnc(-c4ccc(CNC)cc4)o3)n2)CC12CC2` [Compound I-363, 1-(7-(5-Amino-6-(5-(4-((methylamino)methyl)phenyl)-1,3,4-oxadiazol-2-yl)pyrazin-2-yl)-4,7-diazaspiro[2.5]octan-4-yl)propan-1-one] belongs 100 to 1000 nM; to `Nc1ncc(N2CCN(C(=O)Cc3ccccc3)CC2)nc1-c1nnc(-c2ccccc2)o1` [Compound I-197, 1-(4-(5-amino-6-(5-phenyl-1,3,4-oxadiazol-2-yl)pyrazin-2-yl)piperazin-1-yl)-2-phenylethanone], 100 to 1000 nM; to `Nc1ncc(N2CCN(C(=O)COc3ccccc3)CC2)nc1C(=O)Nc1ccccn1` [Compound I-143, 3-amino-6-(4-(2-phenoxyethanoyl)piperazin-1-yl)-N-(pyridin-2-yl)pyrazine-2-carboxamide], 1000 to 10000 nM.
To `CCC(=O)N1CCN(c2cnc(N)c(-c3nnc(-c4ccc(CNC)cc4)o3)n2)C[C@H]1C(C)C` [Compound I-333, 1-[(2R)-4-[5-Amino-6-[5-[4-(methylaminomethyl)phenyl]-1,3,4-oxadiazol-2-yl]pyrazin-2-yl]-2-isopropyl-piperazin-1-yl]propan-1-one] belongs 100 to 1000 nM; to `Nc1ncc(C2=CCN(C(=O)N3CCOCC3)CC2)nc1-c1nnc(-c2ccccc2)o1` [Compound I-217, (4-(5-amino-6-(5-phenyl-1,3,4-oxadiazol-2-yl)pyrazin-2-yl)-5,6-dihydropyridin-1(2H)-yl)(morpholino)methanone], < 100 nM; to `Nc1ncc(C2=CCN(C(=O)C3CCC3)CC2)nc1-c1nnc(-c2ccccc2)o1` [Compound I-128, (4-(5-amino-6-(5-phenyl-1,3,4-oxadiazol-2-yl)pyrazin-2-yl)-5,6-dihydropyridin-1(2H)-yl)(cyclobutyl)methanone], < 100 nM.
Under `Nc1ncc(N2CCNCC2)nc1C(=O)Nc1ccccn1` [Compound I-42, 3-amino-6-(piperazin-1-yl)-N-(pyridin-2-yl)pyrazine-2-carboxamide] stands 1000 to 10000 nM; under `Nc1ncc(C2=CCN(C(=O)C3CCCC3)CC2)nc1-c1nnc(-c2ccccc2)o1` [Compound I-127, (4-(5-amino-6-(5-phenyl-1,3,4-oxadiazol-2-yl)pyrazin-2-yl)-5,6-dihydropyridin-1(2H)-yl)(cyclopentyl)methanone], < 100 nM; under `CCC(=O)N1CCN(c2cnc(N)c(-c3nnc(-c4ccc(CNC)cc4)o3)n2)CC1` [Compound I-327, 1-[4-[5-Amino-6-[5-[4-(methylaminomethyl)phenyl]-1,3,4-oxadiazol-2-yl]pyrazin-2-yl]piperazin-1-yl]propan-1-one], < 100 nM.
As for `Nc1ncc(C2=CCN(S(=O)(=O)c3ccsc3)CC2)nc1-c1nc2ccccc2[nH]1` [Compound I-105, 3-(1H-benzo[d]imidazol-2-yl)-5-(1-(thiophen-3-ylsulfonyl)-1,2,3,6-tetrahydropyridin-4-yl)pyrazin-2-amine], the Ki is < 100 nM.
Under `CCS(=O)(=O)NC1CC[C@H]2CN(c3cnc(N)c(-c4nnc(-c5ccc(CNC)cc5)o4)n3)C[C@@H]12` (stereo partly drawn) [Compound I-354, N-((3aS,6aR)-2-(5-Amino-6-(5-(4-((methylamino)methyl)phenyl)-1,3,4-oxadiazol-2-yl)pyrazin-2-yl)octahydrocyclopenta[c]pyrrol-4-yl)ethanesulfonamide] stands 100 to 1000 nM; under `Cc1ccc2nc(-c3nc(N4CCN(c5ncccn5)CC4)cnc3N)[nH]c2c1` [Compound I-35, 3-(6-methyl-1H-benzo[d]imidazol-2-yl)-5-(4-(pyrimidin-2-yl)piperazin-1-yl)pyrazin-2-amine], 1000 to 10000 nM.
Under `Cn1cnc(S(=O)(=O)N2CCN(c3cnc(N)c(-c4nc5ccccc5[nH]4)n3)CC2)c1` [Compound I-91, 3-(1H-benzo[d]imidazol-2-yl)-5-(4-(1-methyl-1H-imidazol-4-ylsulfonyl)piperazin-1-yl)pyrazin-2-amine] stands 100 to 1000 nM.
Under `CCNCc1ccc(-c2nnc(-c3nc(N4CCCC4)cnc3N)o2)cc1` [Compound I-343, 3-[5-[4-(Aethylaminomethyl)phenyl]-1,3,4-oxadiazol-2-yl]-5-pyrrolidin-1-yl-pyrazin-2-amine] stands < 100 nM; under `Cc1ccc2nc(-c3nc(N4CCC(C(=O)c5ccccc5)CC4)cnc3N)[nH]c2c1` [Compound I-63, (1-(5-amino-6-(6-methyl-1H-benzo[d]imidazol-2-yl)pyrazin-2-yl)piperidin-4-yl)(phenyl)methanone], 100 to 1000 nM; under `CCS(=O)(=O)N1CCN(c2cnc(N)c(-c3nnc(-c4ccc(CNC)cc4)o3)n2)C[C@@H]1C` [Compound I-345, 5-[(35)-4-Ethylsulfonyl-3-methyl-piperazin-1-yl]-3-[5-[4-(methylaminomethyl)phenyl]-1,3,4-oxadiazol-2-yl]pyrazin-2-amine], < 100 nM.
Regarding `CCCS(=O)(=O)N1CCN(c2cnc(N)c(C(=O)Nc3ccccn3)n2)CC1` [Compound I-240, 3-amino-6-(4-(propylsulfonyl)piperazin-1-yl)-N-(pyridin-2-yl)pyrazine-2-carboxamide], the Ki was 100 to 1000 nM.
To `CC(=O)NC1CCN(c2cnc(N)c(-c3nc4ccc(C)cc4[nH]3)n2)CC1` [Compound I-43, N-(1-(5-amino-6-(6-methyl-1H-benzo[d]imidazol-2-yl)pyrazin-2-yl)piperidin-4-yl)ethanamide] belongs 100 to 1000 nM.
To `Nc1ncc(N2CCN(C(=O)c3c(F)cccc3F)CC2)nc1-c1nc2ccccc2[nH]1` [Compound I-177, (4-(5-amino-6-(1H-benzo[d]imidazol-2-yl)pyrazin-2-yl)piperazin-1-yl)(2,6-difluorophenyl)methanone] belongs 100 to 1000 nM; to `CCOC(=O)N1CCN(c2cnc(N)c(-c3nc4ccc(C)cc4[nH]3)n2)CC1` [Compound I-32, ethyl 4-(5-amino-6-(6-methyl-1H-benzo[d]imidazol-2-yl)pyrazin-2-yl)piperazine-1-carboxylate], 1000 to 10000 nM.
